Assay results reported in patent US4837218A, “Alkylated bicycloalkaneamines for treatment of neurotoxic injury” (Washington University, priority 1987, dated 1989).
pKi: −log10 of the molar value.

Columns and labels:
[1] = system: NMA (200 μM) neurotoxicity in chick embryo retina; assay: NMDA/KA Antagonist Assay: prevention of NMA neurotoxicity in chick embryo retina; type: cell-based; details: Gallus gallus, 0.5 h, 15-day old chick embryo retina, 30 min at 37° C., criterion: complete prevention of toxicity in all specimens, read-out: concentration providing total protection against toxicity of NMA
Method: (§1) A 15-day old chick embryo retina, incubated for 30 min. in a balanced salt solution (BSS) containing 1 mM Glu, developed a full lesion resembling that described in the immature mouse retina following s.c. administration of Glu. Other excitotoxin agonists also produce acute lesions within 30 min., each agent being effective at a concentration proportional to its known excitatory and toxic potencies. The pattern of cellular degeneration is restricted in each case to the ganglion cell, inner plexiform and inner nuclear layers, but within these areas certain agonists induce different patterns of degeneration, the differences being most pronounced between NMA and KA. Two agonists were employed in the present test, each at a concentration established previously to be the lowest concentration required to consistently cause a fully-developed retinal lesion: KA (25 μM) and NMA (200 μM). Mecamylamine was tested at various concentrations for its ability to prevent KA or NMA neurotoxicity. Although partial blocking was sometimes observed for antagonist concentrations below the threshold for complete protection, the criterion used for comparing agents for antagonist potency was the concentration required to completely prevent KA or NMA from exerting any toxic activity in any specimen (n>6) studied at that concentration. […]

[2] = system: KA (25 μM) neurotoxicity in chick embryo retina; assay: NMDA/KA Antagonist Assay: prevention of KA neurotoxicity in chick embryo retina; type: cell-based; details: 15-day old chick embryo retina, 30 min at 37° C., tested at various concentrations
Method: as §1

[3] = target: PCP receptor (binding of the PCP ligand 3H-TCP); assay: Receptor Binding Assay: inhibition of 3H-TCP binding in frozen brain sections; details: frozen brain sections (10 microns), 20 nM 3H-TCP, 45 min at 4° C., Scatchard/Rosenthal analysis
Method: Prevention of the neurodegenerative consequences associated with conditions of hypoxia or ischemia may be accomplished with administration of a compound of Formula I. In particular, the compound 3-methylamino-2,2,3-trimethylbicyclo[2.2.1]heptane (mecamylamine) was evaluated in biological assays designed to detect compounds capable of inhibiting hypoxia/ischemia-induced neuronal degeneration. Mecamylamine was evaluated for its ability to inhibit the binding of the PCP ligand tritiated 1-[1-(2-thienyl)cyclohexyl]piperidine [^3 H-TCP].
For receptor binding, frozen brain sections (10 microns) were incubated in […] tris acetate (pH 7.25) containing 0.5 mM magnesium acetate and 20 nM ^3 H-TCP for 45 min. at 4° C. Non-specific binding was assessed with 200 μM PCP. Inhibition of ^3 H-TCP binding was studied by including potential inhibitors in the ^3 H-TCP incubation at concentrations from 10 nM to 1 mM. Dissociation and inhibition constants were calculated by Scatchard/Rosenthal analysis of data obtained by liquid scintillation counting of whole sections.

CNC1(C)C2CCC(C2)C1(C)C (stereo not drawn) [mecamylamine, 3-(methylamino)-2,2,3-trimethylbicyclo[2.2.1]heptane]
EC100 [1]: 100 µM
blocking of KA toxicity [2]: not observed
pKi [3]: 3.91
